Data: paper PMC7587356, “High-Throughput Screening for Inhibitors of the SARS-CoV-2 Protease Using a FRET-Biosensor” (Molecules, 2020)
Counter-ions that a name gives are not always drawn. Like-named read-outs stand apart in the source and are kept apart here.

Biological target: SARS-CoV-2 3CLpro (Severe acute respiratory syndrome coronavirus 2, UniProt P0DTD1)
Assay: biochemical
Type: biochemical
Design: Replicate_1 / Replicate_2 / mean / mean (LOPAC_screen_w_protease): unit not given here
Details: for inhibition at 5 µM: 4 h
[1] = sheet LOPAC_screen_w_protease, primary screen at 5 µM, mean of two replicates
[2] = sheet LOPAC_screen_w_protease, primary screen at 5 µM, replicate 1
[3] = sheet LOPAC_screen_w_protease, primary screen at 5 µM, replicate 2
[4] = LOPAC1280 primary screen with protease, 5 µM compound, mean of two replicates
[5] = LOPAC1280 primary screen with protease, 5 µM compound, replicate 1
[6] = LOPAC1280 primary screen with protease, 5 µM compound, replicate 2
[7] = LOPAC1280 primary screen with protease, 5 µM compound, replicate 1, read-out: Replicate_1 (LOPAC_screen_w_protease)
[8] = LOPAC1280 primary screen with protease, 5 µM compound, replicate 2, read-out: Replicate_2 (LOPAC_screen_w_protease)
[9] = sheet LOPAC_screen_w_protease, primary screen of LOPAC1280 at 5 µM with protease, mean of the two replicates, read-out: mean
[10] = sheet LOPAC_screen_w_protease, primary screen of LOPAC1280 at 5 µM with protease, replicate 1, read-out: Replicate_1
[11] = sheet LOPAC_screen_w_protease, primary screen of LOPAC1280 at 5 µM with protease, replicate 2, read-out: Replicate_2
[12] = sheet LOPAC_screen_w_protease, LOPAC1280 primary screen at 5 µM, with protease, mean of the two replicates
[13] = sheet LOPAC_screen_w_protease, LOPAC1280 primary screen at 5 µM, with protease, replicate 2
[14] = sheet LOPAC_screen_w_protease, primary screen with protease, compound at 5 µM, mean of two replicates
[15] = sheet LOPAC_screen_w_protease, primary screen with protease, compound at 5 µM, replicate 1
[16] = sheet LOPAC_screen_w_protease, primary screen with protease, compound at 5 µM, replicate 2
[17] = sheet LOPAC_screen_w_protease, LOPAC1280 primary screen at 5 µM, with protease, replicate 1
[18] = sheet LOPAC_screen_w_protease, primary screen with protease, mean of two replicates
[19] = sheet LOPAC_screen_w_protease, primary screen with protease, replicate 1
[20] = sheet LOPAC_screen_w_protease, primary screen with protease, replicate 2
[21] = LOPAC1280 primary screen with protease, 5 µM compound, mean of the two replicates
[22] = sheet LOPAC_screen_w_protease, primary screen with protease, 5 µM, mean of two replicates
[23] = sheet LOPAC_screen_w_protease, primary screen with protease, 5 µM, replicate 1
[24] = sheet LOPAC_screen_w_protease, primary screen with protease, 5 µM, replicate 2
[25] = sheet LOPAC_screen_w_protease, primary screen with protease, mean of two replicates, read-out: mean
[26] = sheet LOPAC_screen_w_protease, primary screen with protease, replicate 1, read-out: Replicate_1
[27] = sheet LOPAC_screen_w_protease, primary screen with protease, replicate 2, read-out: Replicate_2
[28] = sheet LOPAC_screen_w_protease, primary screen of LOPAC1280 at 5 µM with protease, mean of the two replicates
[29] = sheet LOPAC_screen_w_protease, primary screen of LOPAC1280 at 5 µM with protease, replicate 1
[30] = sheet LOPAC_screen_w_protease, primary screen of LOPAC1280 at 5 µM with protease, replicate 2
[31] = read-out: Replicate_1 (LOPAC_screen_w_protease)
[32] = read-out: Replicate_2 (LOPAC_screen_w_protease)

## Br.CN1CCc2c(cc(O)c(O)c2Cl)C(c2cccc(Cl)c2)C1 (stereo not shown) [SKF 83565 hydrobromide]
[1]
  mean (LOPAC screen with protease): 22.1474
[2]
  Replicate_1 (LOPAC screen with protease): 23.5852
[3]
  Replicate_2 (LOPAC screen with protease): 20.7095

## Cl.c1ccc2c(N3CCNCC3)cccc2c1 [1-(1-Naphthyl)piperazine hydrochloride]
[4]
  mean (LOPAC_screen_w_protease): 1.563
[5]
  Replicate_1 (LOPAC_screen_w_protease): 4.027
[6]
  Replicate_2 (LOPAC_screen_w_protease): -0.9014

## Cl.NNC(N)=O [Semicarbazide hydrochloride]
[4]
  mean (LOPAC_screen_w_protease): 1.574
[5]
  Replicate_1 (LOPAC_screen_w_protease): 1.447
[6]
  Replicate_2 (LOPAC_screen_w_protease): 1.701

## CC(C)C(=O)c1c(C(C)C)nn2ccccc12 [Ibudilast]
[7]
  inhibition at 5 µM: 1.64%
[8]
  inhibition at 5 µM: 1.76%
[4]
  mean (LOPAC_screen_w_protease): 1.697

## CCCCCC(O)c1cccc(OCc2ccc3ccccc3n2)c1 (stereo not shown) [REV 5901]
Sheet LOPAC_screen_w_protease, primary screen with protease, 5 µM, mean of two replicates, read-out: mean
  inhibition at 5 µM: 0.337%
Sheet LOPAC_screen_w_protease, primary screen with protease, 5 µM, replicate 1, read-out: Replicate_1
  inhibition at 5 µM: 0.269%
Sheet LOPAC_screen_w_protease, primary screen with protease, 5 µM, replicate 2, read-out: Replicate_2
  inhibition at 5 µM: 0.406%

## CC(=O)NCCc1c[nH]c2ccccc12 [N-Acetyltryptamine]
Sheet LOPAC_screen_w_protease, LOPAC1280 primary screen at 5 µM, with protease, mean of the two replicates, read-out: mean
  inhibition at 5 µM: 0.808%
Sheet LOPAC_screen_w_protease, LOPAC1280 primary screen at 5 µM, with protease, replicate 1, read-out: Replicate_1
  inhibition at 5 µM: 1.07%
Sheet LOPAC_screen_w_protease, LOPAC1280 primary screen at 5 µM, with protease, replicate 2, read-out: Replicate_2
  inhibition at 5 µM: 0.543%

## O=C1NC(c2cccc([N+](=O)[O-])c2)=CCN1c1ccccc1O [Icilin]
[9]
  inhibition at 5 µM: 3.88%
[10]
  inhibition at 5 µM: 4.52%
[11]
  inhibition at 5 µM: 3.25%

## CCCC1O[C@@H]2C[C@H]3[C@@H]4CCC5=CC(=O)C=C[C@]5(C)[C@H]4[C@@H](O)C[C@]3(C)[C@]2(C(=O)CO)O1 (stereo partly shown) [Budesonide]
Sheet LOPAC_screen_w_protease, primary screen with protease, compound at 5 µM, mean of two replicates, read-out: mean
  inhibition at 5 µM: 3.01%
Sheet LOPAC_screen_w_protease, primary screen with protease, compound at 5 µM, replicate 1, read-out: Replicate_1
  inhibition at 5 µM: 1.81%
Sheet LOPAC_screen_w_protease, primary screen with protease, compound at 5 µM, replicate 2, read-out: Replicate_2
  inhibition at 5 µM: 4.21%

## NCC(O)(CS(=O)(=O)O)c1ccc(Cl)cc1 (stereo not shown) [2-Hydroxysaclofen]
[12]
  mean: 0.8279
[13]
  Replicate_2: -0.8627

## COC(=O)C(C)(N)Cc1ccc(O)cc1.Cl (racemic)
[14]
  mean: 2.971
[15]
  Replicate_1: 4.293
[16]
  Replicate_2: 1.648

## COc1ccc(CNC(=O)/C=C/c2ccc3[nH]cc(CCN(C)C)c3c2)cc1 [GR 4661]
[12]
  mean: 0.4567
[17]
  Replicate_1: 1.411
[13]
  Replicate_2: -0.4976

## CCCCN1CCC(COC(=O)c2cc(Cl)c(N)c3c2OCCO3)CC1.Cl [SB 204070 hydrochloride]
[18]
  mean: 2.545
[19]
  Replicate_1: 1.507
[20]
  Replicate_2: 3.5833

## O=C(O)[C@@H]1[C@H](C(=O)O)[C@H]2CC[C@@H]1O2 [Endothall]
read-out: Replicate_1
  inhibition at 5 µM: 3.42%
read-out: Replicate_2
  inhibition at 5 µM: -0.805%
read-out: mean
  inhibition at 5 µM: 1.31%

## COc1ccc(CCCOC(Cn2ccnc2)c2ccc(OC)cc2)cc1 (stereo not shown) [SKF 96365]
[7]
  inhibition at 5 µM: 1.52%
[8]
  inhibition at 5 µM: 2.09%
[21]
  mean (LOPAC_screen_w_protease): 1.802

## (-)-3-Methoxynaltrexone hydrochloride
Sheet LOPAC_screen_w_protease, LOPAC1280 primary screen with protease, 5 µM compound, mean of the two replicates
  mean: 5.384
Sheet LOPAC_screen_w_protease, LOPAC1280 primary screen with protease, 5 µM compound, replicate 1
  Replicate_1: 4.034
Sheet LOPAC_screen_w_protease, LOPAC1280 primary screen with protease, 5 µM compound, replicate 2
  Replicate_2: 6.735

## CS(=O)(=O)O.Cc1c(C(=O)c2cccc3ccccc23)c2cccc3c2n1[C@H](CN1CCOCC1)CO3 [(R)-(+)-WIN 55,212-2 mesylate]
[22]
  mean: -0.1611
[23]
  Replicate_1: -0.3938
[24]
  Replicate_2: 0.07161

## N=c1ccn2c(n1)O[C@H]1[C@H](O)[C@@H](CO)O[C@H]12 [Ancitabine hydrochloride]
[25]
  inhibition at 5 µM: 2.45%
[26]
  inhibition at 5 µM: 2.42%
[27]
  inhibition at 5 µM: 2.49%

## N[C@@H](CCCC(=O)O)C(=O)O [L-2-aminoadipic acid]
Sheet LOPAC_screen_w_protease, LOPAC1280 at 5 µM, mean of two replicates
  mean: 0.8841
Sheet LOPAC_screen_w_protease, LOPAC1280 at 5 µM, replicate 1
  Replicate_1: 1.166
Sheet LOPAC_screen_w_protease, LOPAC1280 at 5 µM, replicate 2
  Replicate_2: 0.6027

## COc1ccc(CCN(C)CCc2ccc(OC)c(OC)c2)cc1OC.Cl [YS-035 hydrochloride]
[12]
  mean: 0.8264
[17]
  Replicate_1: 0.7595
[13]
  Replicate_2: 0.8934

## CN1CCc2cc(Cl)c(O)cc2[C@@H](c2ccccc2)C1.Cl [R(+)-SCH-23390 hydrochloride]
[28]
  mean: 3.494
[29]
  Replicate_1: 4.714
[30]
  Replicate_2: 2.274

## c1ccc2c(c1)OCC(C1=NCCN1)O2 (stereo not shown) [Idazoxan hydrochloride]
[31]
  inhibition at 5 µM: 1.08%
[32]
  inhibition at 5 µM: 2.66%

## NC12CC3CC(CC(C3)C1)C2 [Amantadine hydrochloride]
[25]
  inhibition at 5 µM: 2.48%
[26]
  inhibition at 5 µM: 1.91%
[27]
  inhibition at 5 µM: 3.05%

## Cl.Nc1cc(Cl)c(N=C2NCCN2)c(Cl)c1 [p-Aminoclonidine hydrochloride]
[22]
  mean: 0.1922
[23]
  Replicate_1: 0.5913
[24]
  Replicate_2: -0.207

## Cn1cnc2c1c(=O)[nH]c(=O)n2C [Theobromine]
[9]
  inhibition at 5 µM: 3.53%
[10]
  inhibition at 5 µM: 4.5%
[11]
  inhibition at 5 µM: 2.55%

## COc1ccc2c(c1)c(CC(=O)O)c(C)n2C(=O)c1ccc(Cl)cc1 [Indomethacin]
  Replicate_1: 3.273
  Replicate_2: 1.395
  mean: 2.334

## C[C@]12CC[C@@H](O)C[C@@H]1CC[C@@H]1[C@@H]2CC[C@]2(C)C(=O)CC[C@@H]12 [Androsterone]
read-out: Replicate_1
  inhibition at 5 µM: 1.73%
read-out: Replicate_2
  inhibition at 5 µM: 3.02%
read-out: mean
  inhibition at 5 µM: 2.38%

## CCCCCCCCCCCCCCCC(=O)NCC(COP(=O)([O-])OCC[N+](C)(C)C)OCC (racemic)
[28]
  mean: 3.428
[29]
  Replicate_1: 7.48
[30]
  Replicate_2: -0.6245

## Br.Cc1cccc(C2CN(C)CCc3c2cc(O)c(O)c3Cl)c1 (stereo not shown) [SKF 83959 hydrobromide]
[1]
  mean (LOPAC screen with protease): 8.7281
[2]
  Replicate_1 (LOPAC screen with protease): 9.112
[3]
  Replicate_2 (LOPAC screen with protease): 8.344

## Clc1cnc(Oc2ccc(Oc3ncc(Cl)cc3Cl)cc2)c(Cl)c1 [TCPOBOP]
[18]
  mean: 2.32
[19]
  Replicate_1: 5.456
[20]
  Replicate_2: -0.8151

## CC(C)NNC(=O)c1ccncc1.O=P(O)(O)O [Iproniazid phosphate]
[14]
  mean: 2.591
[15]
  Replicate_1: 1.295
[16]
  Replicate_2: 3.887

## CCCN(CCC)CCc1ccc(O)c(O)c1 [Dipropyldopamine hydrobromide]
[7]
  inhibition at 5 µM: 3.8%
[8]
  inhibition at 5 µM: 0.246%
[21]
  mean (LOPAC_screen_w_protease): 2.021

## Cc1nc2sccn2c(=O)c1CCN1CCC(=C(c2ccc(F)cc2)c2ccc(F)cc2)CC1 [Ritanserin]
[7]
  inhibition at 5 µM: 2.24%
[8]
  inhibition at 5 µM: 0.502%
[4]
  mean (LOPAC_screen_w_protease): 1.373

## O=C(O)c1cc([N+](=O)[O-])ccc1NCCCc1ccccc1
  Replicate_1 (LOPAC screen with protease): 5.784
  Replicate_2 (LOPAC screen with protease): 7.243
  mean (LOPAC screen with protease): 6.5136

## CCNC(=O)[C@H]1O[C@@H](n2cnc3c(N)nc(NCCc4ccc(CCC(=O)O)cc4)nc32)[C@H](O)[C@@H]1O.Cl [CGS-21680 hydrochloride]
[28]
  mean: 3.628
[29]
  Replicate_1: 4.89
[30]
  Replicate_2: 2.366

## CC(C)(C)c1cc(C=C(C#N)C#N)cc(C(C)(C)C)c1O [Tyrphostin A9]
  mean (LOPAC_screen_w_protease): 2.02
[31]
  inhibition at 5 µM: 2.73%
[32]
  inhibition at 5 µM: 1.31%

## (+)-Catechin Hydrate
[1]
  mean (LOPAC screen with protease): 22.7149
[2]
  Replicate_1 (LOPAC screen with protease): 22.57
[3]
  Replicate_2 (LOPAC screen with protease): 22.8597

## O=C(OCCN1CCCCC1)c1c[nH]c2ccccc12 [SB 203186]
[14]
  mean: 2.639
[15]
  Replicate_1: 2.947
[16]
  Replicate_2: 2.331
